# Test results: patent US20230372221A1, “USE OF THIOPYRIDINONE COMPOUNDS FOR PREVENTING THE FORMATION OF CUTANEOUS BLACKHEADS” (L'OREAL, priority 2020, published 2023)
# Test system: oxidation of the L-DOPA under the action of the bacterial extract (intracellular extract of Cutibacterium acnes CIP 53.117)
# Test: In vitro evaluation of the ability to inhibit the development of the colour (absorbance at 475 nm of L-DOPA + Cutibacterium acnes extract)
# Assay type: biochemical
# Settings: for inhibiting the development of the colour (result in words): compared with Reference (absence of treatment); for optical density at 475 nm: 32° C.; for % inhib (percentage of inhibition of the formation of the coloured product): from initial rate of oxidation between 10 and 40 minutes vs reference composition
# Description: This method is based on the measurement of absorbance, over time, carried out directly on a composition formed of a mixture of intracellular extract of bacteria of Cutibacterium acnes type, of 3,4-dihydroxy-L-phenylalanine (L-DOPA) and of a test compound. The measurements are compared with those carried out for a mixture of an intracellular extract of bacteria of Cutibacterium acnes type and of 3,4-dihydroxy-L-phenylalanine (L-DOPA), in the absence of test compound (reference). The method is adapted from a method for the enzymatic assay of the tyrosinase activity (Behbahani et al., Microchemical Journal (1993), 47, 251), which is based on the absorbance properties at 475 nm of a coloured intermediate of the pathway for the biosynthesis of melanin starting from L-DOPA, namely dopachrome, a product of the oxidation of L-DOPA. An intracellular extract of bacteria of Cutibacterium acnes CIP 53.117 type stored at 4° C. in the lyophilized form is suspended in 1×PBS (supplied by Gibco BRL Life Technologies) at a concentration of 6 mg/ml. A solution of L-DOPA at a concentration of 0.5 mg/ml is prepared by bringing together L-DOPA (supplied by Sigma-Aldrich) and milliQ water, so as to have an L-DOPA concentration of 1 mg/ml, then diluting with 1×PBS (Dulbecco's Phosphate Buffered Saline, supplied by Gibco BRL Life Technologies). The mixture of 50 μl of these two solutions and of 100 μl of 1×PBS (Dulbecco's Phosphate Buffered Saline, supplied by Gibco BRL Life Technologies) results in a composition with a total volume of 200 μl containing L-DOPA (at a concentration of 125 μg/ml) and Cutibacterium acnes extract (at a concentration of 1.5 mg/ml). The test compositions and the reference composition are introduced separately into wells of a 96-well microplate suitable for reading in visible spectrophotometry, and placed at a temperature of 32° C. The formation of a coloured product is monitored over time by spectrophotometry. To do this, the absorbance, or optical density (O.D.), is measured at 475 nm from the time 0 to the time 2 hours by means of a Spectra Max M5e reader and the Spectra Max software (the time 0 corresponds to the introduction of the composition into the wells). The ability to inhibit the development of the colour of a given compound was assessed by comparing the absorbance measurements obtained for the test compositions with those obtained for the reference composition. More specifically, the inhibitory effect of the test compound was evaluated by comparing the initial rate of oxidation of the L-DOPA under the action of the bacterial extract at 475 nm for the test composition with that of the reference composition in order to obtain a corresponding percentage of inhibition. In practice, the initial rate (Vi) of the oxidation reaction is calculated from the linear part of the curve of the graph of the absorbance values. As this part lies between 10 and 40 minutes (see the graph in FIG. 1), the initial rate of the oxidation reaction is determined using the following relationship: [formula] The percentage of inhibition (% inhib) of a given compound with regard to the formation of the coloured product is subsequently obtained using the values of the initial rate of the oxidation reaction for the reference composition (Viref) and for the test composition ([…]) according to the following relationship: [formula] Within the meaning of the invention, a compound is regarded as having an inhibitory effect if the % inhib value is at least 15%.
# [1] = test compound 12.5 μM, duration 0 minutes
# [2] = test compound 12.5 μM, duration 10 minutes
# [3] = test compound 12.5 μM, duration 20 minutes
# [4] = test compound 12.5 μM, duration 30 minutes
# [5] = test compound 12.5 μM, duration 40 minutes
# [6] = test compound 12.5 μM, duration 60 minutes
# [7] = test compound 12.5 μM, duration 80 minutes
# [8] = test compound 12.5 μM, duration 100 minutes
# [9] = test compound 12.5 μM, duration 120 minutes
# [10] = test compound 25 μM, duration 0 minutes
# [11] = test compound 25 μM, duration 10 minutes
# [12] = test compound 25 μM, duration 20 minutes
# [13] = test compound 25 μM, duration 30 minutes
# [14] = test compound 25 μM, duration 40 minutes
# [15] = test compound 25 μM, duration 60 minutes
# [16] = test compound 25 μM, duration 80 minutes
# [17] = test compound 25 μM, duration 100 minutes
# [18] = test compound 25 μM, duration 120 minutes
# [19] = test compound 50 μM, duration 0 minutes
# [20] = test compound 50 μM, duration 10 minutes
# [21] = test compound 50 μM, duration 20 minutes
# [22] = test compound 50 μM, duration 30 minutes
# [23] = test compound 50 μM, duration 40 minutes
# [24] = test compound 50 μM, duration 60 minutes
# [25] = test compound 50 μM, duration 80 minutes
# [26] = test compound 50 μM, duration 100 minutes
# [27] = test compound 50 μM, duration 120 minutes
# [28] = test compound 100 μM, duration 0 minutes
# [29] = test compound 100 μM, duration 10 minutes
# [30] = test compound 100 μM, duration 20 minutes
# [31] = test compound 100 μM, duration 30 minutes
# [32] = test compound 100 μM, duration 40 minutes
# [33] = test compound 100 μM, duration 60 minutes
# [34] = test compound 100 μM, duration 80 minutes
# [35] = test compound 100 μM, duration 100 minutes
# [36] = test compound 100 μM, duration 120 minutes
structure (smiles),measurement,setting,value
"CCNC(=O)c1ccc[nH]c1=S [Compound 1, N-ethyl-2-thioxo-1,2-dihydropyridine-3-carboxamide]",inhibiting the development of the colour (result in words),,very effective
same,optical density at 475 nm,[1],0.0553
same,optical density at 475 nm,[2],0.0553
same,optical density at 475 nm,[3],0.0561
same,optical density at 475 nm,[4],0.0569
same,optical density at 475 nm,[5],0.0584
same,optical density at 475 nm,[6],0.0605
same,optical density at 475 nm,[7],0.0631
same,optical density at 475 nm,[8],0.0661
same,optical density at 475 nm,[9],0.0681
same,% inhib (percentage of inhibition of the formation of the coloured product),test compound 12.5 μM,66%
same,optical density at 475 nm,[10],0.0554
same,optical density at 475 nm,[11],0.0560
same,optical density at 475 nm,[12],0.0572
same,optical density at 475 nm,[13],0.0587
same,optical density at 475 nm,[14],0.0596
same,optical density at 475 nm,[15],0.0601
same,optical density at 475 nm,[16],0.0611
same,optical density at 475 nm,[17],0.0627
same,optical density at 475 nm,[18],0.0640
same,% inhib (percentage of inhibition of the formation of the coloured product),test compound 25 μM,60%
same,optical density at 475 nm,[19],0.0541
same,optical density at 475 nm,[20],0.0565
same,optical density at 475 nm,[21],0.0568
same,optical density at 475 nm,[22],0.0569
same,optical density at 475 nm,[23],0.0568
same,optical density at 475 nm,[24],0.0575
same,optical density at 475 nm,[25],0.0574
same,optical density at 475 nm,[26],0.0598
same,optical density at 475 nm,[27],0.0597
same,% inhib (percentage of inhibition of the formation of the coloured product),test compound 50 μM,96%
same,optical density at 475 nm,[28],0.0568
same,optical density at 475 nm,[29],0.0555
same,optical density at 475 nm,[30],0.0548
same,optical density at 475 nm,[31],0.0561
same,optical density at 475 nm,[32],0.0555
same,optical density at 475 nm,[33],0.0557
same,optical density at 475 nm,[34],0.0559
same,optical density at 475 nm,[35],0.0564
same,optical density at 475 nm,[36],0.0567
same,% inhib (percentage of inhibition of the formation of the coloured product),test compound 100 μM,100%
"CN(CC(=O)O)C(=O)c1ccc[nH]c1=S [Compound 3, N-methyl-N-[(2-thioxo-1,2-dihydropyridin-3-yl)carbonyl]glycine]",inhibiting the development of the colour (result in words),,very effective
same,optical density at 475 nm,[1],0.0555
same,optical density at 475 nm,[2],0.0565
same,optical density at 475 nm,[3],0.0575
same,optical density at 475 nm,[4],0.0595
same,optical density at 475 nm,[5],0.0613
same,optical density at 475 nm,[6],0.0647
same,optical density at 475 nm,[7],0.0677
same,optical density at 475 nm,[8],0.0686
same,optical density at 475 nm,[9],0.0694
same,% inhib (percentage of inhibition of the formation of the coloured product),test compound 12.5 μM,39%
same,optical density at 475 nm,[10],0.0549
same,optical density at 475 nm,[11],0.0569
same,optical density at 475 nm,[12],0.0578
same,optical density at 475 nm,[13],0.0594
same,optical density at 475 nm,[14],0.0607
same,optical density at 475 nm,[15],0.0630
same,optical density at 475 nm,[16],0.0651
same,optical density at 475 nm,[17],0.0664
same,optical density at 475 nm,[18],0.0677
same,% inhib (percentage of inhibition of the formation of the coloured product),test compound 25 μM,51%
same,optical density at 475 nm,[19],0.0539
same,optical density at 475 nm,[20],0.0561
same,optical density at 475 nm,[21],0.0575
same,optical density at 475 nm,[22],0.0587
same,optical density at 475 nm,[23],0.0594
same,optical density at 475 nm,[24],0.0609
same,optical density at 475 nm,[25],0.0623
same,optical density at 475 nm,[26],0.0632
same,optical density at 475 nm,[27],0.0639
same,% inhib (percentage of inhibition of the formation of the coloured product),test compound 50 μM,58%
same,optical density at 475 nm,[28],0.0579
same,optical density at 475 nm,[29],0.0606
same,optical density at 475 nm,[30],0.0612
same,optical density at 475 nm,[31],0.0619
same,optical density at 475 nm,[32],0.0623
same,optical density at 475 nm,[33],0.0618
same,optical density at 475 nm,[34],0.0606
same,optical density at 475 nm,[35],0.0605
same,optical density at 475 nm,[36],0.0609
same,% inhib (percentage of inhibition of the formation of the coloured product),test compound 100 μM,78%
